In patent US20090030066A1, “SMALL MOLECULES FOR THE PROTECTION OF PANCREATIC CELLS” (priority 2007, published 2009):

Columns and labels:
STZ-treated mice = assay: Blood glucose and body weight in STZ-treated mice, first experiment (not fasted); type: in vivo; details: for Body weight: in g
Procedure: Male C57BL/6 mice (12 weeks old) were housed in a specific pathogen-free facility with a 12-h light/dark cycle and given free access to food and water. Animals weighing between 28-31 g were selected for the experiments. In each group, at the start of experiment the body weight among individual animals differed by less than 1-g.
One group of mice received no treatment over the entire experiment. A second group received only 4.5 mg per kg of CCompound1 on days −2, −1, 0, +1, +2, +3, +4, +5, +6 and +7. A third/fourth/fifth/sixth group of animals were treated i.p. with 210 mg/kg of STZ on day 0. The fourth, fifth, and sixth group of animals also received 4.5 mg per kg each of CCompound1 (CC1; 4th group) or CCompound3 (CC3; 5th group), or CCompound19 (CC19; 6th group) on days −2, −1, 0, +1, +2, +3, +4, +5, +6 and +7 (with STZ treatment given on day 0). Each group consisted of 7 animals. Body weight was measured regularly.
CC compounds were dissolved in physiological saline while STZ was dissolved in 100 mM sodium citrate (pH 4.5). All compounds were injected intraperitoneally in 0.5 ml volume. Control animals were injected physiological saline (0.5 ml) on the same days when other groups were treated with CC compounds.
Blood samples were taken from the eye (canthus) of the animals on days −1, 0, +1, +2, +3, +7 and +10, and glucose concentrations in whole blood samples were immediately measured with the commercially available fast Glucose C test. The animals were not fasted prior to taking the blood samples. The results are expressed as the mean values from 7 animals ±std. dev. (S.D.).

NIT-1 β-cells = assay: MTT viability of STZ-treated NIT-1 islet β-cells; type: cell-based, mouse; details: for A540 (MTT, relative number of viable cells): 30 h, 2% serum, mean ± std. dev. n=8
Description: In the Examples below, an MTT assay was used to determine the relative number of viable cells after treatments. This calorimetric assay is based on the ability of living cells, but not dead cells, to reduce 3-(4,5-dimethyl thiazol-2-yl)-2,5-diphenyltetrazolium bromide. [Carmichael, J, De Graff, W. G., Gazdar, A. F., Minna, J. D. and Mitchell, J. B. (1987) Evaluation of tetrazolium-based semiautomated calorimetric assay: Assessment of chemosensitivity testing. Cancer Res. 47, 936-942], which is hereby incorporated by reference. For this assay, cells were plated in 96-well plates, and the MTT assay was performed as described in the above article both in untreated and treated cell cultures. The MTT assay also was performed at the time when the treatment was started to allow for assessment of the proliferation and survival rates in the control and treated cell cultures. In the MTT assay, higher values mean proportionally higher numbers of viable cells.
NIT-1 β-cells, originally isolated from transgenic NOD mouse carrying SV 40 large T antigen gene on a rat insulin promoter, were obtained from American Type Culture Collection (ATCC CRL-2055). NIT-1 cells contain and secrete insulin, while at the same time they retained their ability to proliferate in the presence of an appropriate stimulus. The cells, maintained in Ham's F12K medium containing 10% heat-inactivated dialyzed fetal bovine serum, were used between passages 32-35.
In this experiment, NIT-1 cells were seeded into 96-well plates. After 24 hours, the medium was replaced with fresh 2% fetal bovine serum containing medium, followed by treatments with 2-50 μM of CCompound1 and 30 min later with 20 mM STZ. Treatments were for 30 hours followed by the MTT assay to determine the relative number of viable cells (expressed as A540).

In the case of `Cc1c(OCC(O)C[N+](C)(C)C)cc2c(=O)c3ccccc3sc2c1C.[Cl-]` (stereo not shown) [CCcompound1, [3-(3,4-Dimethyl-9-oxo-9H-thioxanthen-2-yloxy)-2-hydroxypropyl]trimethyl-ammonium chloride], the “effect of compound alone on blood glucose level” value (STZ-treated mice; 4.5 mg/kg i.p., no STZ) is reported as “no effect on blood glucose level”, the Body weight (STZ-treated mice; STZ 210 mg/kg + compound 4.5 mg/kg i.p., day 0, unit not given) is reported as 28.2 ± 0.7 and the Body weight (STZ-treated mice; STZ 210 mg/kg + compound 4.5 mg/kg i.p., day +1, unit not given) is reported as 28.0 ± 0.7. The Body weight (STZ-treated mice; STZ 210 mg/kg + compound 4.5 mg/kg i.p., day +2, unit not given) was 26.9 ± 0.8, the Body weight (STZ-treated mice; STZ 210 mg/kg + compound 4.5 mg/kg i.p., day +3, unit not given) was 26.9 ± 0.5 and the Body weight (STZ-treated mice; STZ 210 mg/kg + compound 4.5 mg/kg i.p., day +7, unit not given) was 27.1 ± 0.7. It also gave a Body weight (STZ-treated mice; STZ 210 mg/kg + compound 4.5 mg/kg i.p., day +10, unit not given) of 27.2 ± 0.9, a Blood glucose (STZ-treated mice; STZ 210 mg/kg i.p. day 0 + compound 4.5 mg/kg i.p. days −2 to +7, day 0) of 4.1 ± 0.4 mM and a Blood glucose (STZ-treated mice; STZ 210 mg/kg i.p. day 0 + compound 4.5 mg/kg i.p. days −2 to +7, day +1) of 5.7 ± 0.5 mM. It also gave a Blood glucose (STZ-treated mice; STZ 210 mg/kg i.p. day 0 + compound 4.5 mg/kg i.p. days −2 to +7, day +2) of 8.2 ± 1.4 mM, a Blood glucose (STZ-treated mice; STZ 210 mg/kg i.p. day 0 + compound 4.5 mg/kg i.p. days −2 to +7, day +3) of 10.1 ± 1.5 mM and a Blood glucose (STZ-treated mice; STZ 210 mg/kg i.p. day 0 + compound 4.5 mg/kg i.p. days −2 to +7, day +7) of 10.9 ± 1.2 mM. The Blood glucose (STZ-treated mice; STZ 210 mg/kg i.p. day 0 + compound 4.5 mg/kg i.p. days −2 to +7, day +10) was 11.0 ± 0.8 mM, the Blood glucose (STZ-treated mice; STZ 210 mg/kg i.p. day 0 + compound 4.5 mg/kg i.p. days −2 to +7, day −1) was 4.6 ± 0.7 mM and the “protection of islet β-cells” value (STZ-treated mice; STZ-induced type 1 diabetes model) was “protected islet β-cells”. For the same compound, the “effect on STZ-induced rise of blood glucose” value (STZ-treated mice; STZ-treated animals, 4.5 mg/kg i.p.) was “prevent drastic increase in blood glucose level”, the “effect on STZ-induced body weight loss” value (STZ-treated mice; STZ-treated mice, to day 10) was “reduced the effect of STZ on body weight” and the Blood glucose (STZ-treated mice; compound alone 4.5 mg/kg i.p. days −2 to +7, no STZ, day 0) was 4.5 ± 0.4 mM. For the same compound, the Blood glucose (STZ-treated mice; compound alone 4.5 mg/kg i.p. days −2 to +7, no STZ, day +1) was 4.7 ± 0.6 mM, the Blood glucose (STZ-treated mice; compound alone 4.5 mg/kg i.p. days −2 to +7, no STZ, day +2) was 4.6 ± 0.4 mM and the Blood glucose (STZ-treated mice; compound alone 4.5 mg/kg i.p. days −2 to +7, no STZ, day +3) was 4.7 ± 0.4 mM. It also gave a Blood glucose (STZ-treated mice; compound alone 4.5 mg/kg i.p. days −2 to +7, no STZ, day +7) of 4.6 ± 0.4 mM, a Blood glucose (STZ-treated mice; compound alone 4.5 mg/kg i.p. days −2 to +7, no STZ, day +10) of 4.3 ± 0.6 mM and a Blood glucose (STZ-treated mice; compound alone 4.5 mg/kg i.p. days −2 to +7, no STZ, day −1) of 4.5 ± 0.4 mM. It also gave a Body weight (STZ-treated mice; compound alone 4.5 mg/kg i.p., no STZ, day 0, unit not printed in table (animals 28-31 g)) of 28.2 ± 0.9, a Body weight (STZ-treated mice; compound alone 4.5 mg/kg i.p., no STZ, day +1, unit not given) of 28.7 ± 0.4 and a Body weight (STZ-treated mice; compound alone 4.5 mg/kg i.p., no STZ, day +2, unit not given) of 28.1 ± 0.4. For the same compound, the Body weight (STZ-treated mice; compound alone 4.5 mg/kg i.p., no STZ, day +3, unit not given) was 28.7 ± 0.7, the Body weight (STZ-treated mice; compound alone 4.5 mg/kg i.p., no STZ, day +7, unit not given) was 29.5 ± 0.8 and the Body weight (STZ-treated mice; compound alone 4.5 mg/kg i.p., no STZ, day +10, unit not given) was 30.3 ± 1.4. For the same compound, the “effect on the inhibitory effects of STZ on cell proliferation” value (“effect on the inhibitory effects of STZ” for short) (NIT-1 β-cells; 10 μM) was “almost fully reverses”, the “effect on the inhibitory effects of STZ” value (NIT-1 β-cells; 50 μM) was “added to the inhibitory effects of STZ” and the “effect on the inhibitory effects of STZ” value (NIT-1 β-cells; 2-5 μM) was “partially reverses”. For the same compound, the “A540 (MTT, relative number of viable cells)” value (NIT-1 β-cells; STZ 20 mM + compound 2 μM) was 0.934 ± 0.053, the “A540 (MTT, relative number of viable cells)” value (NIT-1 β-cells; STZ 20 mM + compound 5 μM) was 1.078 ± 0.068 and the “A540 (MTT, relative number of viable cells)” value (NIT-1 β-cells; STZ 20 mM + compound 10 μM) was 1.144 ± 0.056. The “A540 (MTT, relative number of viable cells)” value (NIT-1 β-cells; STZ 20 mM + compound 50 μM) was 0.718 ± 0.071.
